Measurements from patent US20220380357A1, “TETRAHYDROISOQUINOLINE COMPOUNDS” (ALLINKY BIOPHARMA, priority 2019, published 2022).
Like-named read-outs stand apart in the source and are kept apart here.

Key:
Format in all cases: cell-based
[1] = tested on: PANC-1. epithelioid carcinoma of the pancreas cell line bearing KRas^G12D oncogenic mutation; assay: Antiproliferative MTS assay, PANC-1 cells; details: compounds 1-23 and 47-52 median of experiments, 24-46 estimations and/or preliminary results, read-out: IC50 values: cell proliferation inhibition, Panc-1
Procedure: Cell line #3: PANC-1. epithelioid carcinoma of the pancreas cell line bearing KRas^G12D oncogenic mutation
(§1) Cell lines were cultured in DMEM or RPMI-1640 supplemented with FBS 10%. In order to assess the antiproliferative effect of compounds, cells were seeded at a density of 1.8×10^3, 6.2×10^3, 7.8×10^3, 21×10^3 and 2×10^3 cells/cm^2, respectively, in tissue culture microplates and were incubated in humidified atmosphere at 5% CO2. 24 h later, compounds dissolved in DMSO 100% were added for different final concentrations ranging between 0.1 and 50 μM for a final DMSO concentration of 0.5% and the plates were incubated for another 72 h. After incubation, proliferation was quantified using CellTiter 96® Aqueous Non-Radioactive Cell Proliferation Assay-MTS (Promega #G5421) following manufacturer instructions. Amount of 490 nm absorbance is directly proportional to the number of living cells. Absorbance was recorded with a BMG Fluostar Optima Microplate Reader and normalized to control with vehicle.

[2] = tested on: A549. Lung carcinoma cell line bearing KRas^G12S oncogenic mutation; assay: Antiproliferative MTS assay, A549 cells; details: compounds 1-23 and 47-52 median of experiments, 24-46 estimations and/or preliminary results, read-out: IC50 values: cell proliferation inhibition, A549
Procedure: Cell line #1: A549. Lung carcinoma cell line bearing KRas^G12S oncogenic mutation
as §1

[3] = tested on: H358. non-small cell lung cancer line bearing KRas^G12C oncogenic mutation; assay: Antiproliferative MTS assay, H358 cells; details: compounds 1-23, 47-52 and Reference Example 1 median of experiments, 24-46 estimations and/or preliminary results, read-out: IC50 values: cell proliferation inhibition, H358
Procedure: Cell line #2: H358. non-small cell lung cancer line bearing KRas^G12C oncogenic mutation
as §1

[4] = tested on: RPMI. myeloma cell line bearing KRas^G12A oncogenic mutation; assay: Antiproliferative MTS assay, RPMI cells; details: 72 h, compounds 1-23 and 47-52 median of experiments, 24-46 estimations and/or preliminary results, read-out: IC50 values: cell proliferation inhibition, RPMI
Procedure: Cell line #4: RPMI. myeloma cell line bearing KRas^G12A oncogenic mutation
as §1

Compound | IC50 ([1]; Homo sapiens, PANC-1, 72 h) [nM] | IC50 ([2]; Homo sapiens, A549, 72 h) [nM] | IC50 ([3]; Homo sapiens, NCI-H358, 72 h) [nM] | IC50 [4] [nM] | IC50 ([1]; 72 h) [nM] | IC50 ([3]; 72 h) [nM] | IC50 ([2]; 72 h) [nM]
COc1ccc(CCOc2cc3c(cc2OC)CCN(C(=O)NCc2ccon2)C3c2ccc(F)cc2C)cc1N (stereo not drawn) [Compound 22] | 600 | > 2000 | 700 | 500 | – | – | –
COc1cc(CCOc2cc3c(cc2OC)CCN(C(=O)NCc2cocn2)C3c2ccc(C(F)(F)F)cc2C)ccc1N (stereo not drawn) [Compound 34] | 400 | 1200 | 500 | 100 | – | – | –
CCNC(=O)N1CCc2cc(OC)c(OCCc3ccc(N)c(OC)c3)cc2C1c1ccc(OC)cc1C (stereo not drawn) [Compound 30] | 500 | 1000 | 400 | 300 | – | – | –
COc1cc(CCOc2cc3c(cc2OC)CCN(C(=O)NCc2ccon2)C3c2ccc(F)cc2C)ccc1N (stereo not drawn) [Compound 41] | 700 | > 2000 | 900 | 900 | – | – | –
COc1ccc(CCOc2cc3c(cc2OC)CCN(C(=O)NCc2cocn2)C3c2ccc(C(F)(F)F)cc2C)cc1N (stereo not drawn) [Compound 15] | 300 | 1000 | 300 | 100 | – | – | –
COc1cc(CCOc2cc3c(cc2OC)CCN(C(=O)NCc2ccon2)C3c2ccc(C(F)(F)F)cc2C)ccc1N (stereo not drawn) [Compound 39] | 600 | > 2000 | 600 | 300 | – | – | –
COc1cc(CCOc2cc3c(cc2OC)CCN(C(=O)NCc2ccon2)C3c2ccc(Cl)cc2C)ccc1N (stereo not drawn) [Compound 42] | 300 | 1000 | 300 | 100 | – | – | –
CCNC(=O)N1CCc2cc(OC)c(OCCc3ccc(N)c(OC)c3)cc2C1c1ccc(Cl)cc1C (stereo not drawn) [Compound 14] | – | 1600 | – | 400 | 500 | 700 | –
COc1ccc(CCOc2cc3c(cc2OC)CCN(C(=O)NCC(F)(F)F)C3c2ccc(F)cc2C)cc1N (stereo not drawn) [Compound 27] | 300 | 900 | 300 | 100 | – | – | –
COc1ccc(CCOc2cc3c(cc2OC)CCN(C(=O)NCc2cocn2)C3c2ccc(F)cc2C)cc1N (stereo not drawn) [Compound 17] | 400 | 1000 | 500 | 200 | – | – | –
CCNC(=O)N1CCc2cc(OC)c(OCCc3ccc(N)c(OC)c3)cc2C1c1ccc(Cl)cc1C (stereo not drawn) [Compound 32] | – | – | – | 100 | 200 | 300 | 1000
COc1cc(CCOc2cc3c(cc2OC)CCN(C(=O)NCc2ccon2)C3c2ccc(C)cc2C)ccc1N (stereo not drawn) [Compound 38] | 400 | 1500 | 500 | 200 | – | – | –
CCNC(=O)N1CCc2cc(OC)c(OCCc3ccc(OC)c(N)c3)cc2C1c1ccc(C(=O)OC)cc1C (stereo not drawn) [Reference Example 1, reference compound] | – | – | 300 | – | – | – | –
COc1ccc(CCOc2cc3c(cc2OC)CCN(C(=O)NCc2ccon2)C3c2ccc(C(F)(F)F)cc2C)cc1N (stereo not drawn) [Compound 20] | 400 | 1000 | 400 | 200 | – | – | –
COc1ccc(CCOc2cc3c(cc2OC)CCN(C(=O)NCc2ccon2)C3c2ccc(Cl)cc2C)cc1N (stereo not drawn) [Compound 23] | 100 | 700 | 100 | 100 | – | – | –
COc1cc2c(cc1OCCc1ccc(OC)c([N+](=O)[O-])c1)C(c1ccc(C)cc1C)N(C(=O)NCc1cocn1)CC2 (stereo not drawn) [Compound 49] | 1500 | > 2000 | > 800 | > 1000 | – | – | –
COc1cc(CCOc2cc3c(cc2OC)CCN(C(=O)NCC(F)(F)F)C3c2ccc(F)cc2C)ccc1N (stereo not drawn) [Compound 46] | 300 | 1000 | 500 | 100 | – | – | –
COc1ccc(C2c3cc(OCCc4ccc(OC)c(N)c4)c(OC)cc3CCN2C(=O)NCC(F)(F)F)c(C)c1 (stereo not drawn) [Compound 26] | 500 | 1000 | 400 | 200 | – | – | –

Compound | IC50 ([1]; Homo sapiens, PANC-1, 72 h) [nM] | IC50 ([2]; Homo sapiens, A549, 72 h) [nM] | IC50 ([3]; Homo sapiens, NCI-H358, 72 h) [nM] | IC50 [4] [nM] | IC50 ([1]; 72 h) [nM] | IC50 ([3]; 72 h) [nM] | IC50 ([2]; 72 h) [nM]
COc1ccc(CCOc2cc3c(cc2OC)CCN(C(=O)NCc2ccon2)C3c2ccc(C)cc2C)cc1N (stereo not drawn) [Compound 19] | 300 | 1500 | 500 | 500 | – | – | –
COc1ccc(C2c3cc(OCCc4ccc(N)c(OC)c4)c(OC)cc3CCN2C(=O)NCc2ccon2)c(C)c1 (stereo not drawn) [Compound 40] | 300 | 1000 | 300 | 100 | – | – | –
COc1ccc(CCOc2cc3c(cc2OC)CCN(C(=O)NCC(F)(F)F)C3c2ccc(C)cc2C)cc1N (stereo not drawn) [Compound 24] | 200 | 1000 | 200 | 100 | – | – | –
COc1ccc(CCOc2cc3c(cc2OC)CCN(C(=O)NCC(F)(F)F)C3c2ccc(C(F)(F)F)cc2C)cc1N (stereo not drawn) [Compound 25] | 500 | > 2000 | 600 | 300 | – | – | –
COc1ccc(CCOc2cc3c(cc2OC)CCN(C(=O)NCC(F)(F)F)C3c2ccc(Cl)cc2C)cc1N (stereo not drawn) [Compound 28] | 200 | 800 | 300 | 100 | – | – | –
COc1cc(CCOc2cc3c(cc2OC)CCN(C(=O)NCc2cocn2)C3c2ccc(C)cc2C)ccc1N (stereo not drawn) [Compound 33] | 600 | > 2000 | 800 | 700 | – | – | –
COc1ccc(C2c3cc(OCCc4ccc(OC)c(N)c4)c(OC)cc3CCN2C(=O)NCc2ccon2)c(C)c1 (stereo not drawn) [Compound 21] | 200 | 900 | 200 | 100 | – | – | –
COc1ccc(C2c3cc(OCCc4ccc(N)c(OC)c4)c(OC)cc3CCN2C(=O)NCC(F)(F)F)c(C)c1 (stereo not drawn) [Compound 45] | 300 | 1000 | 600 | 200 | – | – | –
COc1cc(CCOc2cc3c(cc2OC)CCN(C(=O)NCc2cocn2)C3c2ccc(F)cc2C)ccc1N (stereo not drawn) [Compound 36] | 700 | 1700 | 900 | 500 | – | – | –
COc1ccc(C2c3cc(OCCc4ccc(OC)c(N)c4)c(OC)cc3CCN2C(=O)NCc2cocn2)c(C)c1 (stereo not drawn) [Compound 16] | 200 | 1000 | 300 | 100 | – | – | –
CCNC(=O)N1CCc2cc(OC)c(OCCc3ccc(OC)c(N)c3)cc2C1c1ccc(F)cc1C (stereo not drawn) [Compound 12] | 100 | 900 | 200 | 100 | – | – | –
COc1cc(CCOc2cc3c(cc2OC)CCN(C(=O)NCC(F)(F)F)C3c2ccc(C)cc2C)ccc1N (stereo not drawn) [Compound 43] | 200 | 1000 | 300 | 100 | – | – | –
COc1ccc(CCOc2cc3c(cc2OC)CCN(C(=O)NCc2cocn2)C3c2ccc(Cl)cc2C)cc1N (stereo not drawn) [Compound 18] | 200 | 1000 | 300 | 100 | – | – | –
CCNC(=O)N1CCc2cc(OC)c(OCCc3ccc(N)c(OC)c3)cc2C1c1ccc(F)cc1C (stereo not drawn) [Compound 31] | 400 | > 2000 | 500 | 100 | – | – | –
COc1cc(CCOc2cc3c(cc2OC)CCN(C(=O)NCc2cocn2)C3c2ccc(Cl)cc2C)ccc1N (stereo not drawn) [Compound 37] | 400 | 1500 | 400 | 100 | – | – | –
COc1cc(CCOc2cc3c(cc2OC)CCN(C(=O)NCC(F)(F)F)C3c2ccc(C(F)(F)F)cc2C)ccc1N (stereo not drawn) [Compound 44] | 500 | > 2000 | 800 | 300 | – | – | –
CCNC(=O)N1CCc2cc(OC)c(OCCc3ccc(N)c(OC)c3)cc2C1c1ccc(C(F)(F)F)cc1C (stereo not drawn) [Compound 29] | 400 | 1500 | 500 | 200 | – | – | –
COc1ccc(C2c3cc(OCCc4ccc(N)c(OC)c4)c(OC)cc3CCN2C(=O)NCc2cocn2)c(C)c1 (stereo not drawn) [Compound 35] | 400 | 1000 | 400 | 300 | – | – | –
